18 compounds from patent publication US11279735B2, “Cyclic peptide antibiotics” (priority 2017, dated 2022) can be followed below.

SMILES strings stand for the structures. In brackets after ≈: the same amount, converted by molar mass. *1 amine or outer side, *2 acyl side, *3 side chain or, on linkers, in order; H or OH if unused. Where a SMILES comes first, the peptide text is derived from it. [ ]: non-standard residue; d: D form. The star is where a group is joined. X2 = CCCCCC[C@@H](OC[C@@H](C)N[*:1])[C@@H](C)C(=O)[*:2]; X21 = C[C@H](CO[C@@H]1CCCCCC[C@H]1C(=O)[*:2])N[*:1]; X14 = CCCCCC[C@@H](OCCN[*:1])[C@@H](C)C(=O)[*:2]; Cyclobutyl(trans-3-NH2) = N[C@H]1C[C@H](*)C1; Gly(cHept) = N[C@H](C(=O)O)C1CCCCCC1; Propyl(3-guanidino) = N=C(N)NCCC*; aThr = C[C@H](O)[C@H](N)C(=O)O; NMeL = CN[C@@H](CC(C)C)C(=O)O; Chg = N[C@H](C(=O)O)C1CCCCC1; NMeNva = CCC[C@H](NC)C(=O)O; Dap = NC[C@H](N)C(=O)O; X4 = NCC(F)(F)C*

This test has as its system Escherichia coli (E. coli) strain CFT073 ATCC 700928. The format is cell-based. To be noted: ATCC 700928, 22 h. The method in brief:
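MICs were read after 22 h at 35 °C, with bacteria added to a final OD600 of 0.0005. Compounds were serially diluted 2-fold over ten concentrations from a top of 64, 4, 0.5 or 0.13 μg/mL (protocols 1–4). Medium was cation-adjusted Mueller Hinton II broth plus 0.002% Tween-80, following CLSI M07-A8.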
The MIC is the smallest concentration in the dilution series that meets the test's criterion for growth inhibition. A high value points to a need for much substance. `CCC[C@H]1C(=O)N[C@@H](C2CCCCCC2)C(=O)N[C@@H](CN)C(=O)N[C@@H]([C@H](C)O)C(=O)NCC(=O)O[C@H](CC2CC3CCC2CC3)[C@@H](C)C(=O)N1C` (stereo partly drawn) [Example 79, (6S,9S,12S,15S,18R,19R)-9-(Aminomethyl)-19-(bicyclo[2.2.2]octan-2-ylmethyl)-12-cycloheptyl-6-((S)-1-hydroxyethyl)-16,18-dimethyl-15-propyl-1-oxa-4,7,10,13,16-pentaazacyclononadecane-2,5,8,11,14,17-hexaone] gave an MIC of 0.78 µM (≈ 0.561 µg/mL).

As to `CCCCCC[C@H]1OCCNC(=O)[C@H](CO[C@H]2C[C@H](N)C2)NC(=O)[C@H](CN)NC(=O)[C@H](C2CCCCCC2)NC(=O)[C@H](CCC)N(C)C(=O)[C@@H]1C` [Example 80, (6S,9S,12S,15S,18R,19R)-6-(((1r,3S)-3-Aminocyclobutoxy)methyl)-9-(aminomethyl)-12-cycloheptyl-19-hexyl-16,18-dimethyl-15-propyl-1-oxa-4,7,10,13,16-pentaazacyclononadecane-5,8,11,14,17-pentaone] (cyclo([Dap]S(Cyclobutyl(trans-3-NH2))[X14][NMeNva][Gly(cHept)])), the minimum inhibitory concentration (MIC) is 12 µM (≈ 8.66 µg/mL).

Take `CCCCCC[C@H]1OC[C@@H](C)NC(=O)[C@H](COCC(F)(F)CN)NC(=O)[C@H](CN)NC(=O)[C@H](C2CCCCC2)NC(=O)[C@H](CC(C)C)N(C)C(=O)[C@@H]1C` [Example 81, (3R,6S,9S,12S,15S,18R,19R)-6-((3-Amino-2,2-difluoropropoxy)methyl)-9-(aminomethyl)-12-cyclohexyl-19-hexyl-15-isobutyl-3,16,18-trimethyl-1-oxa-4,7,10,13,16-pentaazacyclononadecane-5,8,11,14,17-pentaone] (cyclo([Chg][Dap]S(X4)[X2][NMeL])): the MIC amounted to 12 µM (≈ 9.12 µg/mL).

As to `CCCCCC[C@H]1OC[C@@H](C)NC(=O)[C@H](COCCCNC(=N)N)NC(=O)[C@H](CN)NC(=O)[C@H](C2CCCCC2)NC(=O)[C@H](CC(C)C)N(C)C(=O)[C@@H]1C` [Example 82, 1-(3-(((3R,6S,9S,12S,15S,18R,19R)-9-(Aminomethyl)-12-cyclohexyl-19-hexyl-15-isobutyl-3,16,18-trimethyl-5,8,11,14,17-pentaoxo-1-oxa-4,7,10,13,16-pentaazacyclononadecan-6-yl)methoxy)propyl)guanidine] (cyclo([Chg][Dap]S(Propyl(3-guanidino))[X2][NMeL])), the minimum inhibitory concentration (MIC) turned out to be 4.4 µM (≈ 3.37 µg/mL).

The compound `CCC[C@H]1C(=O)N[C@@H](C2CCCCCC2)C(=O)N[C@@H](CN)C(=O)N[C@@H]([C@H](C)O)C(=O)NCC(=O)O[C@H](C[C@@H]2C[C@@H]3CC[C@@H](C3)C2)[C@@H](C)C(=O)N1C` [Example 83, (6S,9S,12S,15S,18R,19R)-9-(Aminomethyl)-19-(((1R,3s,5S)-bicyclo[3.2.1]octan-3-yl)methyl)-12-cycloheptyl-6-((S)-1-hydroxyethyl)-16,18-dimethyl-15-propyl-1-oxa-4,7,10,13,16-pentaazacyclononadecane-2,5,8,11,14,17-hexaone] came in with a minimum inhibitory concentration (MIC) of 0.39 µM (≈ 0.28 µg/mL).

Compound `CCC[C@H]1C(=O)N[C@@H](C2CCCCCC2)C(=O)N[C@@H](CN)C(=O)N[C@@H]([C@H](C)O)C(=O)NCC(=O)O[C@H](CC2CC3(CCC3)C2)[C@@H](C)C(=O)N1C` [Example 84, (6S,9S,12S,15S,18R,19R)-9-(Aminomethyl)-12-cycloheptyl-6-((S)-1-hydroxyethyl)-16,18-dimethyl-15-propyl-19-(spiro[3.3]heptan-2-ylmethyl)-1-oxa-4,7,10,13,16-pentaazacyclononadecane-2,5,8,11,14,17-hexaone] showed a minimal inhibitory concentration (MIC) of 0.78 µM (≈ 0.55 µg/mL).

For `CCC[C@H]1C(=O)N[C@@H](C2CCCCC2)C(=O)N[C@@H](CN)C(=O)N[C@@H]([C@H](C)O)C(=O)N[C@H](C)CO[C@@H]2CCCCCC[C@H]2C(=O)N1C` [Example 86, (3R,6S,9S,12S,15S,17aR,23aR)-9-(Aminomethyl)-12-cyclohexyl-6-((S)-1-hydroxyethyl)-3,16-dimethyl-15-propyloctadecahydrocycloocta[r][1]oxa[4,7,10,13,16]pentaazacyclononadecine-5,8,11,14,17(2H)-pentaone] (cyclo([Chg][Dap][aThr][X21][NMeNva])), the minimum inhibitory concentration (MIC) came out at 50 µM (≈ 32.5 µg/mL).

For the compound `CCCCCCCCCC[C@H]1OC(=O)CNC(=O)[C@H]([C@H](C)O)NC(=O)[C@H](CN)NC(=O)[C@H](CCCOC)NC(=O)[C@H](CC(C)C)N(C)C(=O)[C@@H]1C` [Example 87, (6S,9S,12S,15S,18R,19R)-9-(aminomethyl)-19-decyl-15-isobutyl-12-(3-methoxypropyl)-16,18-dimethyl-6-[(1S)-1-hydroxyethyl]-1-oxa-4,7,10,13,16-pentazacyclononadecane-2,5,8,11,14,17-hexone], the minimum inhibitory concentration (MIC) was 50 µM (≈ 36.3 µg/mL).

In turn, `CCCCCCCCCC[C@H]1OC(=O)CNC(=O)[C@H]([C@H](C)O)NC(=O)[C@H](CN)NC(=O)[C@H]([C@H](C)CC)NC(=O)[C@H](CCc2ccccc2)N(C)C(=O)[C@@H]1C` [Example 88, (6S,9S,12S,15S,18R,19R)-9-(aminomethyl)-19-decyl-16,18-dimethyl-15-(2-phenylethyl)-6-[(1S)-1-hydroxyethyl]-12-[(1R)-1-methylpropyl]-1-oxa-4,7,10,13,16-pentazacyclononadecane-2,5,8,11,14,17-hexone] displayed a minimum inhibitory concentration (MIC) of 50 µM (≈ 38 µg/mL).

The compound `CC[C@@H](C)[C@@H]1NC(=O)[C@H](CC(C)C)N(C)C(=O)[C@H](C)[C@@H](CCCCc2ccccc2)OC(=O)CNC(=O)[C@H]([C@H](C)O)NC(=O)[C@H](CN)NC1=O` [Example 89, (6S,9S,12S,15S,18R,19R)-9-(aminomethyl)-15-isobutyl-16,18-dimethyl-19-(4-phenylbutyl)-6-[(1S)-1-hydroxyethyl]-12-[(1R)-1-methylpropyl]-1-oxa-4,7,10,13,16-pentazacyclononadecane-2,5,8,11,14,17-hexone] came in with an MIC of 12 µM (≈ 8.43 µg/mL).

`CCCCCC[C@H]1OC(=O)CNC(=O)[C@H]([C@H](C)O)NC(=O)[C@H](CN)NC(=O)[C@H](CC(C)C)NC(=O)[C@H](CC(C)C)N(C)C(=O)[C@@H]1C` [Example 90, (6S,9S,12S,15S,18R,19R)-9-(aminomethyl)-19-hexyl-12,15-diisobutyl-16,18-dimethyl-6-[(1S)-1-hydroxyethyl]-1-oxa-4,7,10,13,16-pentazacyclononadecane-2,5,8,11,14,17-hexone]: the MIC was determined as 21 µM (≈ 13.8 µg/mL).

Compound `CCCCCC[C@H]1OC(=O)CNC(=O)[C@H]([C@H](C)O)NC(=O)[C@H](CN)NC(=O)[C@H](Cc2ccccc2)NC(=O)[C@H](CC(C)C)N(C)C(=O)[C@@H]1C` [Example 91, (6S,9S,12S,15S,18R,19R)-9-(aminomethyl)-12-benzyl-19-hexyl-15-isobutyl-16,18-dimethyl-6-[(1S)-1-hydroxyethyl]-1-oxa-4,7,10,13,16-pentazacyclononadecane-2,5,8,11,14,17-hexone] gave a minimum inhibitory concentration (MIC) of 50 µM (≈ 34.4 µg/mL).

`CCCCCCCCCC[C@H]1OC(=O)CNC(=O)[C@H](COCCOCCN)NC(=O)[C@H](CO)NC(=O)[C@H]([C@@H](C)CC)NC(=O)[C@H](CC(C)C)N(C)C(=O)[C@@H]1C` [Example 92, (6S,9S,12S,15S,18R,19R)-6-[2-(2-aminoethoxy)ethoxymethyl]-19-decyl-9-(hydroxymethyl)-15-isobutyl-16,18-dimethyl-12-[(1S)-1-methylpropyl]-1-oxa-4,7,10,13,16-pentazacyclononadecane-2,5,8,11,14,17-hexone]: the minimum inhibitory concentration (MIC) is 19 µM (≈ 14.9 µg/mL).

In the case of `CCCCCCCCCC[C@H]1OC(=O)[C@@H](CC)NC(=O)[C@H]([C@H](C)O)NC(=O)[C@H](CN)NC(=O)[C@H]([C@H](C)CC)NC(=O)[C@H](CC(C)C)N(C)C(=O)[C@@H]1C` [Example 93, (3R,6S,9S,12S,15S,18R,19R)-9-(aminomethyl)-19-decyl-3-ethyl-15-isobutyl-16,18-dimethyl-6-[(1S)-1-hydroxyethyl]-12-[(1R)-1-methylpropyl]-1-oxa-4,7,10,13,16-pentazacyclononadecane-2,5,8,11,14,17-hexone], the minimum inhibitory concentration (MIC) came out at 10 µM (≈ 7.39 µg/mL).

`CC[C@@H](C)[C@@H]1NC(=O)[C@H](CC(C)C)N(C)C(=O)[C@H](C)[C@@H](CCC23CC4CC(CC(C4)C2)C3)OC(=O)CNC(=O)[C@H](CO)NC(=O)[C@H](CN)NC1=O` [Example 94, (6S,9S,12S,15S,18R,19R)-19-[2-(1-adamantyl)ethyl]-9-(aminomethyl)-6-(hydroxymethyl)-15-isobutyl-16,18-dimethyl-12-[(1R)-1-methylpropyl]-1-oxa-4,7,10,13,16-pentazacyclononadecane-2,5,8,11,14,17-hexone] registered an MIC of 4.4 µM (≈ 3.16 µg/mL).

For `CCCCCCCCCC[C@H]1OC(=O)CNC(=O)[C@H](COCCCN)NC(=O)[C@H](CO)NC(=O)[C@H]([C@@H](C)CC)NC(=O)[C@H](CC(C)C)N(C)C(=O)[C@@H]1C` [Example 95, (6S,9S,12S,15S,18R,19R)-6-(3-aminopropoxymethyl)-19-decyl-9-(hydroxymethyl)-15-isobutyl-16,18-dimethyl-12-[(1S)-1-methylpropyl]-1-oxa-4,7,10,13,16-pentazacyclononadecane-2,5,8,11,14,17-hexone], the minimum inhibitory concentration (MIC) was 14 µM (≈ 10.6 µg/mL).

`CCCCCC[C@H]1OC(=O)CNC(=O)[C@H]([C@H](C)O)NC(=O)[C@H](CN)NC(=O)[C@H](C2CCCCC2)NC(=O)[C@H](CC(C)C)N(C)C(=O)[C@@H]1Cc1ccc(C)cc1` [Example 96, (6S,9S,12S,15S,18R,19R)-9-(aminomethyl)-12-cyclohexyl-19-hexyl-15-isobutyl-16-methyl-18-(p-tolylmethyl)-6-[(1S)-1-hydroxyethyl]-1-oxa-4,7,10,13,16-pentazacyclononadecane-2,5,8,11,14,17-hexone] gave a minimum inhibitory concentration (MIC) of 5.3 µM (≈ 4.09 µg/mL).

In turn, `CCCCCC[C@H]1OC(=O)CNC(=O)[C@H]([C@H](C)O)NC(=O)[C@H](CN)NC(=O)[C@H](C2CCCCC2)NC(=O)[C@H](CC(C)C)N(C)C(=O)[C@@H]1CCc1ccc(C)cc1` [Example 97, (6S,9S,12S,15S,18R,19R)-9-(aminomethyl)-12-cyclohexyl-19-hexyl-15-isobutyl-16-methyl-18-[2-(p-tolyl)ethyl]-6-[(1S)-1-hydroxyethyl]-1-oxa-4,7,10,13,16-pentazacyclononadecane-2,5,8,11,14,17-hexone] gave an MIC of 3.7 µM (≈ 2.9 µg/mL).
